The record followed here is PMC12627862, “Therapeutic targeting of endothelial calcium signaling accelerates the resolution of lung injury” (Signal Transduction and Targeted Therapy, 2025).

Molecules are shown by their SMILES. Like-named read-outs stand apart in the source and are kept apart here. Starred links: 1 amine or outer side, 2 acyl side, 3 side chain; linkers in the order of their positions; H or OH if unused. Positions of bridges follow the written chain, without caps; N, C: chain ends. Non-standard residues stand in square brackets, D forms with d. Residues, ends and D or L forms follow the SMILES beside them. *: point of attachment. Leu(4,5-dehydro) = C=C(C)C[C@H](N)C(=O)O; Oic = O=C(O)[C@@H]1C[C@@H]2CCCC[C@@H]2N1; d(tBuAla) = CC(C)(C)C[C@@H](N)C(=O)O; dVal(3-OH) = CC(C)(O)[C@@H](N)C(=O)O; tBuAla = CC(C)(C)C[C@H](N)C(=O)O; Myristoyl = CCCCCCCCCCCCCC(=O)*; R5 = C=CCCC[C@@](C)(N)C(=O)O; S5 = C=CCCC[C@](C)(N)C(=O)O; X1 = O=C(CC(O)CN[*:1])[*:2]; 4Amb = NCc1ccc(C(=O)O)cc1; X3 = NCC(O)CC(=O)*

The nature of data set [1]: Stability of selected EB3 inhibitors in human blood plasma. It counts as in vitro ADME. As for the experimental part: Supplementary Table 3. Stability of selected EB3 inhibitors in human blood plasma. The indicated inhibitors were incubated with human plasma at 37 °C and samples were taken at the indicated time points. Plasma proteins were precipitated with ice-cold perchloric acid (60%); the concentration of compounds was measured in supernatant using a liquid chromatography-tandem mass spectrometry (LC-MS/MS). See also Figures 1 and 2.

The nature of data set [2]: Aggregation / solubility at 1 mM. Particulars: summary calls it solubility at 1mM. Type of data set: physicochemical. As for the experimental part: (§1) The solubilities of the synthesized compounds were determined experimentally (Supplementary Table 2). Most compounds were highly soluble at a 1 mM concentration; however, some compounds tended to form aggregates. These compounds were excluded from further studies. In addition, we experimentally determined the lipophilicity of each compound, logP(oct/wat)=log(soluteoct/solutewat ), which is the partition coefficient of a compound between aqueous (water) and lipophilic (octanol) phases (Supplementary Table 2).

Data set [3] is described as follows: Lipophilicity of peptides, logP(oct/wat). Type of data set: physicochemical. As for the experimental part: as §1
Lipophilicity of peptides. Two separate solutions were obtained: an aqueous phosphate buffer with saturated n-octanol, and an n-octanol solution with saturated phosphate buffer. Peptides were then dissolved and diluted in the phosphate buffer. Different partitions were then made with different n-octanol to water ratio before shaking for an hour at room temperature. The aqueous phase and n-octanol were allowed to equilibrate, and each phase was extracted and analyzed for peptide concentrations. The ratio of peptide concentration in n-octanol to that in water is expressed as log(P).

Data set [4] deals with EB3 interactions with IP3R3-GFP (Homo sapiens, UniProt Q9UPY8). The data set can be described thus: Competitive binding: inhibition of EB3 interaction with IP3R3-GFP in vitro. Type of data set: biochemical. Particulars: 250 nM. The text has this: We tested the efficacy of twenty-three compounds in inhibiting EB3 interactions with IP3R3-GFP via an in vitro approach developed by us[12],[13]. […] Guided by NMR studies, we predicted the binding pose of 109 to EB3 via AutoDock Vina[13],[24],[25].

The test system of data set [5] is human primary microvascular lung endothelial cells (HLMVECs). Briefly: Peptide uptake in endothelial cells. Type of data set: cell-based. The method, then: We next analyzed the cell-penetrating properties of the selected compounds, hereafter referred to as vascular therapeutics (VT). The rate of uptake of 5’6-FAM (fluorescein)-labeled compounds by human primary microvascular lung endothelial cells (HLMVECs) was determined via confocal fluorescence live-cell imaging. FAM-labeled Myr-EBIN[13] and fluorescein alone were used as positive and negative controls, respectively. The t½ uptake and maximal uptake were determined from changes in the integrated fluorescence intensity over a 30 min period (Fig. 2a and Supplementary Fig. 1a). […] Like Myr-EBIN, compounds VT-107, -108 and -109 presented the highest uptake rates of 92.5 ± 5.0%, 82.5 ± 2.8% and 94.7 ± 4.9%, respectively, whereas the linear compound VT-101 was taken up less efficiently, with an average uptake of 58.4 ± 2.7% (Fig. 2a). […] The t½ uptake, however, varied between the tested compounds (Fig. 2b). The stapled compounds presented the shortest t½ uptake, whereas the linear compounds presented the longest t½ (Fig. 2b).
Peptide uptake in endothelial cells. The rate of peptide uptake by primary human microvascular endothelial cells was measured using 5’6FAM (fluorescein)-labeled peptides and confocal fluorescence live-cell imaging, with fluorescein alone used as a negative control. Changes in intracellular fluorescence for each peptide were monitored over time, and saponin, a detergent, was added at the end of the experiment to induce full uptake of the tested peptides by endothelial cells. The fluorescence intensity inside the cells was tracked over time, and the half-time uptake (t1/2) and maximum uptake were calculated.

Data set [6] in a line: Stability at various storage conditions. Type of data set: physicochemical. Particulars: for amount of peptide remaining after storage: phosphate-buffered sterile saline, 8 days, LC-MS/MS. The method, then: Stability assay of peptides in various storage conditions. Peptides were dissolved and stored in phosphate-buffered sterile saline at -20, 4, 37, and 60°C for 8 days. The amount of peptide remaining after the study was analyzed by LC-MS/MS.
Supplementary Table 5. Stability of selected compounds at various storage conditions. Preliminary accelerated storage stability at various temperature conditions for the selected inhibitors was tested in phosphate-buffered sterile saline at -20 °C, 4 °C, 37 °C and 60 °C for 8 days. See also Figures 1 and 2.

Sequence of EB3 interactions with IP3R3-GFP (Q9UPY8 whole entry): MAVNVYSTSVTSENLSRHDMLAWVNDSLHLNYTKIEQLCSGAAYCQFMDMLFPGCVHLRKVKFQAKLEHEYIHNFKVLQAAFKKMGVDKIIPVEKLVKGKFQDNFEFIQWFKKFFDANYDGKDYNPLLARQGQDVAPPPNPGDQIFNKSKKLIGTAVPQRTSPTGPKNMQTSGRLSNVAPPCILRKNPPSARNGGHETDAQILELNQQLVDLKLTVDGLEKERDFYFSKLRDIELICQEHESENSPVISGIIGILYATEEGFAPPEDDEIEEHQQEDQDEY

Take `CCCCCCCCCCCCCC(=O)N[C@@H](Cc1ccccc1)C(=O)N[C@H](C(=O)N[C@@H](CCC(=O)O)C(=O)N[C@H](C(=O)N1CCC[C@H]1C(=O)N[C@H](C(=O)N[C@H](C(=O)O)[C@@H](C)CC)[C@@H](C)O)[C@@H](C)CC)[C@@H](C)O` [Myr-EBIN, reference compound] (Myristoyl-FTEIPTI-OH): in data set [1] (human, plasma), the share remaining at 1.5 h was 105% and the share remaining at 20 h amounted to 53%.
Turning to `CC(C)(C)C[C@H](NC(=O)CC(O)CNC(=O)[C@@H]1C[C@@H]2CCCC[C@@H]2N1C(=O)[C@H](CC(C)(C)C)NC(=O)c1ccc(CNC(=O)[C@H](NC(=O)[C@H](N)Cc2ccccc2)C(C)(C)O)cc1)C(=O)O` (stereo partly drawn) [compound 101, (2S)-2-(4-((2S,3aS,7aS)-1-((S)-2-(4-(((R)-2-((R)-2-amino-3-phenylpropanamido)-3-hydroxy-3-methylbutanamido)methyl)benzamido)-4,4-dimethylpentanoyl)octahydro-1H-indole-2-carboxamido)-3-hydroxybutanamido)-4,4-dimethylpentanoic acid.] (H-[dF][dVal(3-OH)][4Amb][tBuAla][Oic][X1][tBuAla]-OH), the “Aggregation at 1mM” value in data set [2] was “weak signal”. The same compound registered a logD in data set [3] of 0.52. In data set [4], this compound showed an inhibition at 0.25 µM of 41%. In data set [5], the “half-time uptake t1/2” value is recorded as 9.58 ± 0.09 min and the “penetration of the cell membrane” value is given as “able to penetrate the cell membrane without the addition of a cell internalization signal”. Besides, in data set [1] (human, plasma), the fraction remaining at 1.5 h is 87% and the amount remaining at 20 h turned out to be 85%. Besides, the storage stability entry in data set [6] was “stable”.
Turning to `C=C(C)C[C@@H]1NC(=O)[C@](C)(NC(=O)c2ccc(CNC(=O)CC(O)CN)cc2)CCC/C=C\CCC[C@@](C)(C(=O)N[C@H](CC(C)(C)C)C(=O)O)NC(=O)CC(O)CNC(=O)[C@@H]2C[C@@H]3CCCC[C@@H]3N2C1=O` (stereo partly drawn) [compound 107, (2R)-2-((8S,17R,20S,22aS,26aS,27aS,Z)-17-(4-((4-amino-3-hydroxybutanamido)methyl)benzamido)-4-hydroxy-8,17-dimethyl-20-(2-methylallyl)-1,6,18,21-tetraoxo 2,3,4,5,6,7,8,9,10,11,14,15,16,17,18,19,20,21,22a,23,24,25,26,26a,27,27a-hexacosahydro-1H-[1,4,7,12]tetraazacyclotricosino[4,5-a]indole-8-carboxamido)-4,4-dimethylpentanoic acid] ({X3-4Amb}-[R5][Leu(4,5-dehydro)][Oic][X1][S5][d(tBuAla)]-OH; staple (Z) 1-5), the “Aggregation at 1mM” value in data set [2] is given as “weak signal”. In addition, the logD in data set [3] (shake-flask n-octanol/phosphate buffer, mutually saturated, shaken 1 hour at room temperature, read-out: Log P (Octanol/Water)) was 0.51. Also, the inhibition at 0.25 µM in data set [4] was 65%. Besides, the “uptake, percentage of the maximal values obtained following saponin treatment” value in data set [5] (5’6-FAM-labeled compounds, HLMVECs, confocal live-cell imaging over 30 min, mean ± SEM, n = 16–45 cells per group) stood at 92.5 ± 5.0%. Moreover, the “half-time uptake t1/2” value in data set [5] (5’6-FAM-labeled compounds, HLMVECs, confocal live-cell imaging, n = 3 independent experiments) is given as 0.21 ± 0.40 min. Further, the “penetration of the cell membrane” value in data set [5] (5’6-FAM-labeled compounds, HLMVECs, no cell internalization signal) is given as “able to penetrate the cell membrane without the addition of a cell internalization signal”. Also, the fraction remaining at 1.5 h in data set [1] (human plasma, 37 °C, 1.5 hr, perchloric acid (60%) precipitation, LC-MS/MS, read-out: compound remaining in human plasma) amounted to 87%. The share remaining at 20 h in data set [1] (human plasma, 37 °C, 20 hr, perchloric acid (60%) precipitation, LC-MS/MS, read-out: compound remaining in human plasma) amounted to 65%. In addition, the “amount of peptide remaining after storage” value in data set [6] (4 °C) is reported as 88%; in data set [6] (37 °C) it was 85%; in data set [6] (60 °C), 85%; in data set [6] (-20 °C), 94%.

For orientation: inhibition means the relative decrease from the control value, in per cent. Low readings indicate a weak effect, high ones a strong effect.
